Results reported in patent publication US7576177B2, “Hsp peptides and analogs for modulation of immune responses via antigen presenting cells” (Andromeda Biotech Ltd., priority 2002, dated 2009).
Read-outs that look alike come from different tables or passages of the source.

How the values were obtained:
[1] = test system: BALB/c DO.11.10 bone marrow cells cultured for dendritic cells, cocultured with DO.11.10 T cells; assay: Education of mouse dendritic cells and stimulation of T-cells, cytokine content of supernatant; format: cell-based; conditions: for IFN secretion of T cells / IL-4 secretion of T cells / IL-10 secretion of T cells / IL-12 secretion of T cells: 0.3 nM Ova peptide
Description: Whelan et al. (J. Immunol 164, 6453-6460, 2000) addressed the problem in mice by an experiment in which mouse bone marrow cells were grown for 6 days in culture with GM-CSF to give immature dendritic cells. These dendritic cells were then incubated overnight with LPS (known to drive cells to DC1) or with a nematode antigen. The reason for the choice of nematode antigen was that injection of this antigen in vivo gives rise to a Th2 response in animals. After this so-called “education” of the dendritic cells, they were washed and subsequently incubated with naive T cells in the presence of antigenic stimulus. The experiment was possible because of the use of transgenic mice in which all the T cells respond to the same peptide (OVA323-339) which absolves the system from any question of bias of the T cell response at the level of the T cells. Any bias should be a consequence of the “education” of the dendritic cells. After three days of incubation the cytokine responses produced by the T cells, were measured by ELISA. […] In contrast, nematode antigen incubation gave rise to more IL-4 (Th2) than did controls while the LPS incubation inhibited the IL4 response. Therefore, the nematode antigen was said to drive cells to DC2. A similar method was used for testing the compounds of the present invention: • 1. Bone marrow cells were extracted from the leg bones of DO.11.10 mice transgenic for the TcR. All cells from these mice respond to the OVA peptide ([…]). • 2. Bone marrow cells were plated at 10^6 cells/ml in 100 mm diameter tissue culture petri dishes in Iscove's medium supplemented with 10% FCS, […], 1 mM sodium pyruvate, penicillin/streptomycin (according to manufacturer's recommendations), non-essential amino acids, 50 μM β-mercaptoethanol and 10 ng/ml mGM-CSF. • 3. After 4 days, the medium was carefully removed and replaced with fresh medium • 4. After 6 days, the non-adherent cells were harvested and used as immature dendritic cells • 5. The immature dendritic cells are plated at 1×10^6 cells/ml, 1 ml/well in 24 well plates in the above medium with various reagents added at various concentrations and incubated overnight. This is the stage in which the dendritic cells are “educated” • 6. The next day the cells were harvested and washed 3 times then resuspended at 5×10^4 cells/ml in 1 ml of the above medium but without the addition of GM-CSF to be cocultured with T cells • 7. […] 5×10^5 T cells were cultured with the dendritic cells from step 6 in the presence of various concentrations of the OVA peptide (0, 0.3 nM, 3 nM and 30 nM). • 9. After 3 days PMA (50 ng/ml) and ionomycin (500 ng/ml) were added to further stimulate the cells. • 10. The next day the cell supernatants were collected and assayed for cytokine content (Interferon γ, IL4, IL-10 and IL-12).
The compound was tested for stimulation of DO.11.10 bone marrow cells according to the assay described above (Production and education of mouse dendritic cells and stimulation of T-cells).
BALB/c DO.11.10 bone marrow cells were cultured for dendritic cells and then stimulated with LPS 1 μg/ml, LPS 10 μg/ml, hsp60 3 μg/ml, hsp60 10 μg/ml, p277 5 μg/ml and p277 50 μg/ml. The cells were then transferred to wells with T cells from fresh BALB/c DO.11.10 mice and stimulated with OVA peptide at different concentrations (0, 0.3 nM, 3 nM, 30 nM). Supernatant was collected after 48 hours for assay. 30 μl was taken for IFN, 40 μl for IL4 and IL-10 and 50 μl for IL-12 assays. The results are presented in the following tables, as amount of cytokine (pg/ml), and in FIG. 1.

J774 cells = conditions: 48 hours
Description: Nitric oxide is a proinflammatory mediator produced by macrophages. The classic stimulus for nitric oxide production is lipopolysaccharide (LPS). Other molecules derived from pathogens such as hsp60 also induce macrophages to produce nitric oxide. Nitric oxide is usually produced by cells in conjunction with TNFα, IL-1 and IL-6.
The effect of p277(Val^6-Val^11) was tested on the production of nitric oxide from a macrophage cell line both the direct effect and the effect of p277(Val^6-Val^11) on the nitric oxide produced in response to hsp60.
The assay method is described in full in WO 01/43691. Briefly, J774 cells (2×10^5 cells/assay) were incubated for 48 hours with LPS, hsp60 or p277(Val^6-Val^11) or in inhibition assay, the cells were incubated with hsp60 at various concentrations in the presence or absence of 20 μg/ml p277(Val^6-Val^11). After 48 hours the supernatant was collected and tested for nitric oxide. The test for nitric oxide is performed by mixing an equal volume of the cell supernatant with Griess reagent and measuring the resultant color at 550 nm.

THP-1 cells = test system: THP-1 cells
Description: Alternatively, APCs exposed to Hsp peptides and analogs are tested for direct influence on cytokine production. For example, pre-monocyte like derived cells (e.g. human monocytic cell line THP-1), which can be differentiated to monocytes by treatment with 100 nM phorbol ester (12-O-tetradecanoylphorbol-13-acetate, PMA) for 72 hours, are used. […] Differentiated cells are preincubated with the tested compounds or incubated after PMA treatment following subsequent stimulus with LPS. Secreted amounts of cytokines (such as TNF, and IP-10) are measured. Another example for direct measuring of cytokines secreted from APCs exposed to Hsp peptides and analogs involve measurement of cytokines (e.g. IP-10 and IL-8) secretion in human peripheral blood mononuclear cells cultured first with GM-CSF and IL4 and then with LPS, zymosan or tested peptide. These cells are also used for investigation of cell surface antigens (e.g. CD83 and CD86) indicating their maturation.
The human cell line THP-1 was used for this assay. These cells are pre-monocyte like derived from acute monocytic leukemia and can be differentiated to monocytes by treatment with 100 nM phorbol ester (12-O-tetradecanoylphorbol-13-acetate, PMA) for 72 hours. During this time the cells change morphology from round cells growing in suspension to larger, flat, adherent cells.

mouse monocyte line J774 = assay: Secretion of oxygen free radicals (oxidative burst) from mouse monocyte line; format: cell-based; conditions: J774, FIG. 5
[2] = dendritic cells educated with 5 μg/ml
[3] = dendritic cells educated with 50 μg/ml
[4] = differentiated THP-1 cells incubated with peptide
[5] = preincubation, subsequent stimulus with 10 ng/ml LPS

VLGGGVALLRVIPALDSLTPANED [p277(Val^6-Val^11)]
IL-4 produced by T cells after exposure of dendritic cells (in words) ([1]; compared with non-exposed dendritic cells): more IL-4 than non-exposed dendritic cells
IFN secretion of T cells [1, 2]: 722.22 pg/mL
IL-4 secretion of T cells [1, 2]: 36.96 pg/mL
IL-10 secretion of T cells [1, 2]: 32.53 pg/mL
IL-12 secretion of T cells [1, 2]: 177.50 pg/mL
IFN secretion of T cells [1, 3]: 373.89 pg/mL
IL-4 secretion of T cells [1, 3]: 82.29 pg/mL
IL-10 secretion of T cells [1, 3]: 27.15 pg/mL
IL-12 secretion of T cells [1, 3]: 82.50 pg/mL
direct stimulation of nitric oxide production (J774 cells): Under no conditions did the peptide stimulate nitric oxide production
inhibition of hsp60 induced nitric oxide (J774 cells; hsp60 at various concentrations with 20 μg/ml peptide): Neither did it inhibit the hsp60 induced nitric oxide produced
direct IP-10 secretion (THP-1 cells; [4]): did not secrete TNF, or IP-10 directly
direct TNF secretion (THP-1 cells; [4]): did not secrete TNF
% stimulation of IP-10 secretion (THP-1 cells; preincubation with 0.0128 ng/ml, then 10 ng/ml LPS): −48%
% stimulation of IP-10 secretion (THP-1 cells; preincubation with 0.064 ng/ml, then 10 ng/ml LPS): 52%
% stimulation of IP-10 secretion (THP-1 cells; preincubation with 0.32 ng/ml, then 10 ng/ml LPS): 61%
% stimulation of IP-10 secretion (THP-1 cells; preincubation with 1.6 ng/ml, then 10 ng/ml LPS): 46%
% stimulation of IP-10 secretion (THP-1 cells; preincubation with 8 ng/ml, then 10 ng/ml LPS): 77%
% stimulation of IP-10 secretion (THP-1 cells; preincubation with 40 ng/ml, then 10 ng/ml LPS): 141%
% stimulation of IP-10 secretion (THP-1 cells; preincubation with 200 ng/ml, then 10 ng/ml LPS): 45%
% stimulation of IP-10 secretion (THP-1 cells; preincubation with 1000 ng/ml, then stimulation with 10 ng/ml LPS): 45%
amount of IP-10 secreted after preincubation and LPS (in words) (THP-1 cells; [5]): increased amount of IP-10 secreted
amount of TNF after preincubation and LPS (THP-1 cells; [5]): not significantly affected
inhibition of the oxidative burst (secretion of oxygen free radicals) (mouse monocyte line J774): effective
direct stimulation of TNFα (cell lines): ineffective
inhibition of TNFα secreted as a result of stimulation by LPS or hsp60 (cell lines): ineffective
